In ChEMBL document CHEMBL4480388, “Rad51/BRCA2 disruptors inhibit homologous recombination and synergize with olaparib in pancreatic cancer cells” (Eur J Med Chem, 2019):
pEC50: −log10 of the molar value. Activity calls are given as the source filed them. The rule behind the calls is not given here.

Key:
CAPAN-1 [1] = experiment: Synergistic cytotoxicity against human Capan1 cells assessed as reduction in cell viability at 40 uM measured after 72 hrs in presence of PARP inhibitor olaparib by crystal violet staining based assay; format: functional
[2] = target: T1, DNA repair protein RAD51 homolog 1 (Homo sapiens, UniProt Q06609); experiment: Displacement of N-terminal biotinylated-BRC4 from recombinant human Rad51 expressed in Escherichia coli by ELISA; settings: for pEC50: read-out: EC50
T1 sequence (Q06609 whole entry): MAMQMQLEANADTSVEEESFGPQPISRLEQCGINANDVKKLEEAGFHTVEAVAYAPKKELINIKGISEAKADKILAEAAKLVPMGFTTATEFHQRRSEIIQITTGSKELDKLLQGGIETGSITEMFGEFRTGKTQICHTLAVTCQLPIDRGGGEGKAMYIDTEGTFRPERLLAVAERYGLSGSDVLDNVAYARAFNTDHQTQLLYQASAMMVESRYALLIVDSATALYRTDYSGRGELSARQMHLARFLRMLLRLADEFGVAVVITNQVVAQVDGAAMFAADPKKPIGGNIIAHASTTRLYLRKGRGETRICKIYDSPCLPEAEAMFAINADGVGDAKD

CAPAN-1 [3] = experiment: Effect on homologous recombination in human Capan1 cells at 20 to 40 uM measured after 16 hrs by reporter gene based PCR analysis; format: functional, cell-based
[4] = target: T2, DNA repair protein RAD51 homolog 1 (Homo sapiens) (UniProt Q06609); experiment: Binding affinity to Rad51 in human BxPC3 cells assessed as reduction in protein-mediated homologous recombination at 40 uM measured after 16 hrs by reporter gene based PCR analysis relative to control; format: cell-based; design: scale not given: the % may be the effect or the level left
T2 sequence (whole entry): T1 sequence (Q06609 whole entry)

BXPC-3 [5] = experiment: Synergistic cytotoxicity against human BxPC3 cells assessed as reduction in cell viability at 40 uM measured after 72 hrs in presence of PARP inhibitor olaparib by crystal violet staining based assay; format: functional
[6] = Solubility of the compound in RPMI 1640 medium; format: physicochemical
[7] = target: T2, DNA repair protein RAD51 homolog 1 (Homo sapiens); experiment: Binding affinity to Rad51 in human BxPC3 cells assessed as reduction in protein-mediated homologous recombination at 5 to 30 uM measured after 16 hrs by reporter gene based PCR analysis; format: cell-based
BXPC-3 [8] = experiment: Induction of DNA damage in human BxPC3 cells assessed as increase in gammaH2AX phosphorylation level at 20 uM measured after 144 hrs by Western blotting analysis; format: functional, cell-based
BXPC-3 [9] = experiment: Induction of apoptosis in human BxPC3 cells assessed as increase in PUMA level at 20 uM measured after 144 hrs by Western blotting analysis; format: functional, cell-based
BXPC-3 [10] = experiment: Induction of DNA damage in human BxPC3 cells assessed as increase in gammaH2AX phosphorylation level at 20 uM measured after 144 hrs in presence of PARP inhibitor olaparib by Western blotting analysis relative to control; format: functional
[11] = target: T2, DNA repair protein RAD51 homolog 1 (Homo sapiens); experiment: Binding affinity to Rad51 in human BxPC3 cells assessed as reduction in protein-mediated homologous recombination at 20 uM measured after 16 hrs by reporter gene based PCR analysis relative to control; format: cell-based; design: scale not given: the % may be the effect or the level left
BXPC-3 [12] = experiment: Synergistic cytotoxicity against human BxPC3 cells assessed as reduction in cell viability measured after 72 hrs in presence of PARP inhibitor olaparib by crystal violet staining based assay; format: functional
CAPAN-1 [13] = experiment: Effect on homologous recombination in human Capan1 cells at 10 to 20 uM measured after 16 hrs by reporter gene based PCR analysis; format: functional, cell-based
BXPC-3 [14] = experiment: Synergistic cytotoxicity against human BxPC3 cells assessed as reduction in cell viability at 20 uM measured after 72 hrs in presence of PARP inhibitor olaparib by crystal violet staining based assay; format: functional
BXPC-3 [15] = experiment: Synergistic cytotoxicity against human BxPC3 cells assessed as combination index at 20 uM measured after 144 hrs in presence of PARP inhibitor olaparib by CellTox green dye based fluorescence assay; format: functional
BXPC-3 [16] = experiment: Synergistic cytotoxicity against human BxPC3 cells assessed as reduction in cell viability at 20 uM measured after 144 hrs in presence of PARP inhibitor olaparib by CellTox green dye based fluorescence assay; format: functional
BXPC-3 [17] = experiment: Induction of apoptosis in human BxPC3 cells assessed as increase in BAX level at 20 uM measured after 144 hrs by Western blotting analysis; format: functional, cell-based
CAPAN-1 [18] = experiment: Synergistic cytotoxicity against human Capan1 cells assessed as reduction in cell viability at 20 uM measured after 72 hrs in presence of PARP inhibitor olaparib by crystal violet staining based assay; format: functional
BXPC-3 [19] = experiment: Induction of apoptosis in human BxPC3 cells assessed as caspase-3 activation at 20 uM measured after 144 hrs by Western blotting analysis; format: functional, cell-based

| SMILES | EC50 [2] | other results |
| --- | --- | --- |
| O=C(CSc1nnc(Cn2c(=O)sc3ccccc32)n1CCCc1ccccc1)NC1CC1 | – | Activity (CAPAN-1 [1]): inactive; pEC50 [2]: 4.62; Activity (CAPAN-1 [3]): inactive; Activity [4]: 24%; Activity (BXPC-3 [5]): inactive |
| O=C(CSc1nnc(Cn2c(=O)sc3ccccc32)n1CCCc1cccnc1)NC1CCCC1 | Not Active | – |
| O=C(CSc1nnc(Cn2c(=O)sc3ccccc32)n1CCCc1ccccc1)Nc1ccccc1 | Not Active | – |
| O=C(CSc1nnc(CN2CCSC2=O)n1CCCc1ccccc1)NC1CCCC1 | Not Active | – |
| O=C(CSc1nnc(Cn2c(=O)sc3ccccc32)n1CCCc1ccccc1)N1CCCCC1 | Not Active | – |
| O=C(CSc1nnc(Cn2c(=O)sc3ccccc32)n1CCc1ccccc1F)NC1CCCC1 | Not Active | – |
| O=C(CSc1nnc(Cn2ccsc2=O)n1CCCc1ccccc1)NC1CCCC1 | Not Active | – |
| O=C(CSc1nnc(Cn2c(=O)sc3ccccc32)n1CCc1cccc(O)c1)NC1CCCC1 | Not Active | – |
| O=c1sc2ccccc2n1Cc1nnc(S)n1CCc1ccccc1 | Not Active | – |
| COc1ccc2sc(=O)n(Cc3nnc(SCC(=O)NC4CCCC4)n3CCc3ccccc3)c2c1 | Not Active | – |
| O=C(CSc1nnc(Cn2c(=O)sc3ccccc32)n1CCCc1ccccc1)C1CCCC1 | Not Active | – |
| Cl.NCc1ccc(-c2nnc(SCC(=O)NC3CCCC3)n2CCc2ccccc2)cc1 | Not Active | – |
| O=C(CSc1nncn1CCc1ccccc1)NC1CCCC1 | Not Active | – |
| O=C(CSc1nnc(Cn2c(=O)sc3ccccc32)n1CCCc1ccncc1)NC1CCCC1 | Not Active | – |
| CN1CCC(NC(=O)CSc2nnc(Cn3c(=O)sc4ccccc43)n2CCCc2ccccc2)CC1 | Not Active | – |
| Cc1ccc(C#N)c(=O)n1Cc1nnc(SCC(=O)NC2CCCC2)n1CCCc1ccccc1 | Not Active | – |
| O=C(CSc1nnc(Cn2c(=O)sc3ccccc32)n1CCc1ccccc1)Nc1ccccc1 | – | pEC50 [2]: 4.02 |
| O=C(CSc1nnc(Cn2c(=O)sc3ccccc32)n1CCc1ccccc1)NC1CCCCC1 | Not Active | – |
| O=C(CSc1nnc(Cn2c(=O)sc3ccccc32)n1CCc1cccc(F)c1)NC1CCCC1 | Not Active | – |
| Cl.Nc1cccn(Cc2nnc(SCC(=O)NC3CCCC3)n2CCCc2ccccc2)c1=O | Not Active | – |
| O=C(CSc1nnc(Cn2c(=O)sc3ccccc32)n1CCc1ccccc1)N1CCOCC1 | Not Active | – |

| SMILES | EC50 [2] | other results |
| --- | --- | --- |
| Cc1cccc(CCn2c(Cn3c(=O)sc4ccccc43)nnc2SCC(=O)NC2CCCC2)c1 | Not Active | – |
| O=C(CSc1nnc(Cn2c(=O)sc3ccccc32)n1CCc1ccccc1)N1CCCC1 | Not Active | – |
| O=C(CSc1nnc(Cn2c(=O)sc3ccccc32)n1CCc1ccccc1)NC1CC1 | Not Active | – |
| Cc1ccccc1CCn1c(Cn2c(=O)sc3ccccc32)nnc1SCC(=O)NC1CCCC1 | – | pEC50 [2]: 4.00 |
| O=C(CSc1nnc(Cn2c(=O)oc3ccccc32)n1CCCc1ccccc1)NC1CCCC1 | – | pEC50 [2]: 4.05 |
| O=C(CSc1nnc(Cn2c(=O)sc3ccccc32)n1CCc1ccc(F)cc1)NC1CCCC1 | Not Active | – |
| O=C(CSc1nnc(Cn2c(=O)sc3ccccc32)n1CCc1ccccc1)NCc1ccc(F)cc1 | Not Active | – |
| O=C(CSc1nnc(Cn2c(=O)sc3ccccc32)n1CCCc1ccccc1)NC1CCC1 | – | pEC50 [2]: 4.38; solubility [6]: Insoluble |
| Cc1nnc(SCC(=O)NC2CCCC2)n1CCc1ccccc1 | Not Active | – |
| O=C(CSc1nnc(Cn2c(=O)sc3ccccc32)n1CCCc1ccccc1)NC1CCCC1 | – | pEC50 [2]: 4.60; Activity [7]: inactive |
| O=C(CSc1nnc(Cn2c(=O)sc3ccccc32)n1CCc1ccccc1O)NC1CCCC1 | Not Active | – |
| O=C(CSc1nnc(Cn2c(=O)sc3ccc(F)cc32)n1CCc1ccccc1)NC1CCCC1 | Not Active | – |
| O=C(CSc1nnc(Cn2c(=O)sc3ccc(O)cc32)n1CCc1ccccc1)NC1CCCC1 | Not Active | – |
| O=C(CSc1nnc(Cn2c(=O)sc3ccccc32)n1CCCc1ccccc1)NC1CCCCC1 | – | Activity (BXPC-3 [8]): inactive; Activity (BXPC-3 [9]): inactive; pEC50 [2]: 5.10; Activity (BXPC-3 [10]): >70%; Activity [11]: 40%; Activity (BXPC-3 [12]): Dose-dependent effect; Activity (CAPAN-1 [13]): inactive; Activity (BXPC-3 [14]): Active; CI (BXPC-3 [15]): 0.76; Activity (BXPC-3 [16]): Active; Activity (BXPC-3 [17]): inactive; Activity (CAPAN-1 [18]): inactive; Activity (BXPC-3 [19]): inactive |
| O=C(CSc1nnc(Cn2c(=O)sc3ccccc32)n1CCCc1ccccn1)NC1CCCC1 | Not Active | – |
| O=C(CSc1nnc(Cn2c(=O)sc3ccccc32)n1CCc1ccccc1)NCc1ccccc1 | Not Active | – |
| NC(=O)CSc1nnc(Cn2c(=O)sc3ccccc32)n1CCc1ccccc1 | Not Active | – |
| O=C(CSc1nnc(Cn2c(=O)sc3ccccc32)n1CCc1ccccc1)NC1CCCC1 | – | pEC50 [2]: 4.28 |
| O=C(CSc1nnc(Cn2c(=O)[nH]c3ccccc32)n1CCCc1ccccc1)NC1CCCC1 | Not Active | – |
| O=C(CSc1nnc(CNc2ccccc2)n1CCc1ccccc1)NC1CCCC1 | Not Active | – |
